Test results taken from patent US11584747B2, “Substituted pyridopyrimidinonyl compounds useful as T cell activators” (BRISTOL-MYERS SQUIBB COMPANY, priority 2019, dated 2023).
Read-outs that look alike come from different tables or passages of the source.

Tests used:
[1] = biological target: T1, human DGKα (Homo sapiens (Human), UniProt P23743); test: DGKα LIPGLO assay (extruded liposome substrate, ADP-Glo luminescence); type: biochemical
[2] = biological target: human DGKζ (Homo sapiens (Human), UniProt Q13574); test: DGKζ LIPGLO assay (extruded liposome substrate, ADP-Glo luminescence); type: biochemical
[3] = system: human venous whole blood (IFN-γ); test: Human whole blood IFN-γ assay; type: cell-based
Method: Human venous whole blood (22.5 μL per well), obtained from healthy donors, was pre-treated with compounds for one hour at 37° C. in a humidified 95% air/5% CO2 incubator. The blood was stimulated with 2.5 μL anti-human CD3 and anti-CD28 mAb at a final concentration of 1 μg/mL each for 24 hours at 37° C. IFN-γ in the supernatants was measured using AlphLISA kit (Cat #AL217).

[4] = biological target: T1, human DGKα; test: DGKα ADPGLO assay (detergent/lipid micelle substrate); type: biochemical; conditions: truncated DGK alpha; read-out: DGK alpha ADPGLO (Truncated) IC50
Method: DGK Alpha ADPGLO (Truncated) IC50 (uM)
The detergent/lipid micelle was prepared by combining 15 g phosphatidylserine (Avanti 840035P) and 1 g diacylglycerol (8008110) and dissolving into 150 mL chloroform in a 2 L round bottom flask. Chloroform was removed under high vacuum by rotary evaporation. […] The lipid/detergent solution was split into 5 mL aliquots and stored at −80° C.

[5] = liposome assay, read-out: DGK alpha LIPGLO IC50
[6] = liposome assay, read-out: DGK zeta LIPGLO IC50
[7] = whole blood, normalized to 3 μM reference compound as 100% activation, read-out: IFN-γ Whole Blood Normalized EC50
[8] = Homo sapiens, whole blood, normalized to 3 μM reference compound as 100% activation, read-out: IFN-γ Whole Blood Normalized EC50

T1 sequence (P23743 whole entry, looked up): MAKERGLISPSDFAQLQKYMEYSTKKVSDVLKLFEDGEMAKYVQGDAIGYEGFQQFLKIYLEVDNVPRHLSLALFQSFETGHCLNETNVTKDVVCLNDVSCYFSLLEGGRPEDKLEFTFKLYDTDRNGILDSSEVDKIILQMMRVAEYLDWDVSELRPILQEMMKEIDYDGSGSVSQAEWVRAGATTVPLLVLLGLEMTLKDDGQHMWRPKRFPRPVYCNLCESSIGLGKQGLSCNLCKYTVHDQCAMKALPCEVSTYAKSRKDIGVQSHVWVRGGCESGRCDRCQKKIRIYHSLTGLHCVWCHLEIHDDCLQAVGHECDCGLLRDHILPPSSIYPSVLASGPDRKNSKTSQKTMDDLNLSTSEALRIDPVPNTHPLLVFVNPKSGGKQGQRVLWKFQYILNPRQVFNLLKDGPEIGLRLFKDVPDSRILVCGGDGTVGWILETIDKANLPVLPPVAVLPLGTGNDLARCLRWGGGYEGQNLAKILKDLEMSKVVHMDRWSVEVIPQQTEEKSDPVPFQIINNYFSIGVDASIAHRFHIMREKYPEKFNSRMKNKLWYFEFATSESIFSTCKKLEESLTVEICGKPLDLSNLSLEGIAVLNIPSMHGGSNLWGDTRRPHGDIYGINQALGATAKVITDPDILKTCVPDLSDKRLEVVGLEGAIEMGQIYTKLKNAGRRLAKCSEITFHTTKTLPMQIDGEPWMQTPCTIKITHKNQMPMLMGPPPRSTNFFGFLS
Sequence of human DGKζ (Q13574 other isoform, or with tags, fused parts or gaps): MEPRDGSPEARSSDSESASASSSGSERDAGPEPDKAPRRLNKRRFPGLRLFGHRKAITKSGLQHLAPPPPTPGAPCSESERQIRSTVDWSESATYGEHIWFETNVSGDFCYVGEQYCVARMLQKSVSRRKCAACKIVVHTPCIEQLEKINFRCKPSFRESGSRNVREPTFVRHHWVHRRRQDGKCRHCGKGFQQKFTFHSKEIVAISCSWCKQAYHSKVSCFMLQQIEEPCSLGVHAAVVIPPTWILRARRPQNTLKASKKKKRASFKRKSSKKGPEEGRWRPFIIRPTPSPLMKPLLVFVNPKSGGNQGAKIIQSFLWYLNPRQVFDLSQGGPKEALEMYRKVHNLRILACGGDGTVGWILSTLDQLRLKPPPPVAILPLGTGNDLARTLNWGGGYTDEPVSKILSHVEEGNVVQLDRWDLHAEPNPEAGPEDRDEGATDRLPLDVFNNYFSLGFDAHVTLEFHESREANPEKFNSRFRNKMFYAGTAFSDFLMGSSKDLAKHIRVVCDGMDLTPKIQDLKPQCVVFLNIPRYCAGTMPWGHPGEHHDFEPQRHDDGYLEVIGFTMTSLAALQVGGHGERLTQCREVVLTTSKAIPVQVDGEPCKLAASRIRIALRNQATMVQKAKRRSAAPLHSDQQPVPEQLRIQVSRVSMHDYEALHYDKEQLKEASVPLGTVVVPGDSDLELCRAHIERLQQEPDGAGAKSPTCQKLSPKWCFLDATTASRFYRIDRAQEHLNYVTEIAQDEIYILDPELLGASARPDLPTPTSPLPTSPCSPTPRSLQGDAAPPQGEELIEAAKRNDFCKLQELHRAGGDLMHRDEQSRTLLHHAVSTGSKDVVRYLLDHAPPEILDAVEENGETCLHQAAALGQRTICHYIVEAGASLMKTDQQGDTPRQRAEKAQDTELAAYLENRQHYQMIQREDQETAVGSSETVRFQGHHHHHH

Row | Compound | IC50 [1, 5] [nM] | IC50 [2, 6] [nM] | other results
1 | C[C@@H]1CN(c2nc(=O)n(C)c3ccc(C#N)nc23)[C@@H](C)CN1C(c1ccc(OC(F)(F)F)cc1)c1cc(C2CC2)on1 (single isomer, unassigned) [Example 165] | 380 | 370 | EC50 [3, 7]: 630 nM
2 | CC[C@@H]1CN(c2nc(=O)n(C)c3ccc(C#N)nc23)[C@@H](C)CN1C(C)c1ccc(OC(F)(F)F)cc1 (single isomer, unassigned) [Example 49] | 390 | 850 | EC50 [3, 7]: 2340 nM
3 | CC(c1ccc(C(F)(F)F)cc1)N1C[C@H](C)N(c2nc(=O)n(C)c3ccc(C#N)nc23)C[C@H]1C (single isomer, unassigned) [Example 141] | 1270 | 1760 | EC50 [3, 7]: 3550 nM
4 | CC(c1ccc(OC(C)(C)C#N)cc1)N1C[C@H](C)N(c2nc(=O)n(C)c3ccc(C#N)nc23)C[C@H]1C (stereo partly drawn) [Example 377, 4-((2S,5R)-4-(1-(4-((2-cyanopropan-2-yl)oxy)phenyl)ethyl)-2,5-dimethylpiperazin-1-yl)-1-methyl-2-oxo-1,2-dihydropyrido[3,2-d]pyrimidine-6-carbonitrile] |  |  | IC50 ([1]; liposome (LIPGLO) assay, read-out: DGK alpha (liposome assay) IC50): 240 nM; EC50 ([3]; human whole blood, anti-CD3 plus anti-CD28 stimulation, 24 hours, read-out: IFN-γ Whole Blood EC50): 520 nM; IC50 ([2]; liposome (LIPGLO) assay, read-out: DGK zeta (liposome assay) IC50): 370 nM
5 | CC(c1ccc2c(c1)OC(F)(F)O2)N1C[C@H](C)N(c2nc(=O)n(C)c3ccc(C#N)nc23)C[C@H]1C (single isomer, unassigned) [Example 166] | 5390 | 330 | EC50 [3, 7]: 500 nM
6 | CCC(c1ccc(OC(F)(F)F)cc1)N1C[C@H](C)N(c2nc(=O)n(C)c3ccc(C#N)nc23)C[C@H]1C (single isomer, unassigned) [Example 155] | 250 | 750 | 
7 | CCC(c1ccc2c(c1)OC(F)(F)O2)N1C[C@H](C)N(c2nc(=O)n(C)c3ccc(C#N)nc23)C[C@H]1CC (single isomer, unassigned) [Example 80] | 2160 | 1180 | 
8 | CC[C@H]1CN(C(C)c2ccc(C(F)(F)F)cc2N2CCOCC2)[C@H](CC)CN1c1nc(=O)n(C)c2ccc(C#N)nc12 (stereo partly drawn) [Example 195, 4-((2S,5R)-2,5-diethyl-4-(1-(2-morpholino-4-(trifluoromethyl)phenyl)ethyl)piperazin-1-yl)-1-methyl-2-oxo-1,2-dihydropyrido[3,2-d]pyrimidine-6-carbonitrile] | 125000 | 5070 | 
9 | CC[C@H]1CN(C(c2ccc(F)cc2)c2cccc(C(F)(F)F)n2)[C@H](C)CN1c1nc(=O)n(C)c2ccc(C#N)nc12 (stereo partly drawn) [Example 120, 4-((2S,5R)-2-ethyl-4-((4-fluorophenyl)(6-(trifluoromethyl)pyridin-2-yl)methyl)-5-methylpiperazin-1-yl)-1-methyl-2-oxo-1,2-dihydropyrido[3,2-d]pyrimidine-6-carbonitrile] | 1710 | 740 | 
10 | CC[C@H]1CN(C(C)c2ccc(OC(F)(F)F)cc2)[C@H](CC)CN1c1nc(=O)n(C)c2ccc(C#N)nc12 (single isomer, unassigned) [Example 10] | 370 | 970 | 
11 | CC[C@H]1CN(C(c2ccc(F)cc2)c2cccc(C(F)(F)F)n2)[C@H](C)CN1c1nc(=O)n(C)c2ccc(C#N)nc12 (stereo partly drawn) [Example 121, 4-((2S,5R)-2-ethyl-4-((4-fluorophenyl)(6-(trifluoromethyl)pyridin-2-yl)methyl)-5-methylpiperazin-1-yl)-1-methyl-2-oxo-1,2-dihydropyrido[3,2-d]pyrimidine-6-carbonitrile] | 1940 | 1650 | 
12 | CC[C@@H]1CN(c2nc(=O)n(C)c3ccc(C#N)nc23)[C@@H](C)CN1C(C)c1ccc2c(c1)OC(F)(F)O2 (single isomer, unassigned) [Example 72] | 1500 |  | EC50 [3, 7]: 790 nM
13 | CC[C@H]1CN(C(C)c2ccc(C(F)(F)F)cc2F)[C@H](C)CN1c1nc(=O)n(C)c2ccc(C#N)nc12 (stereo partly drawn) [Example 119, 4-((2S,5R)-2-ethyl-4-(1-(2-fluoro-4-(trifluoromethyl)phenyl)ethyl)-5-methylpiperazin-1-yl)-1-methyl-2-oxo-1,2-dihydropyrido[3,2-d]pyrimidine-6-carbonitrile] | 650 | 730 | 
14 | CC(c1cc(F)c(F)c(F)c1)N1C[C@H](C)N(c2nc(=O)n(C)c3ccc(C#N)nc23)C[C@H]1C (single isomer, unassigned) [Example 138] | 2410 |  | 
15 | CC[C@H]1CN(C(C)c2ccc(OC(F)(F)F)cc2)[C@H](C)CN1c1nc(=O)n(C)c2ccc(C#N)nc12 (stereo partly drawn) [Example 122, 4-((2S,5R)-2-ethyl-5-methyl-4-(1-(4-(trifluoromethoxy)phenyl)ethyl)piperazin-1-yl)-1-methyl-2-oxo-1,2-dihydropyrido[3,2-d]pyrimidine-6-carbonitrile] | 32 | 1960 | 
16 | CC[C@@H]1CN(c2nc(=O)n(C)c3ccc(C#N)nc23)[C@@H](C)CN1C(C)c1ccc2oc(=O)n(C)c2c1 (stereo partly drawn) [Example 299, 4-((2S,5R)-5-ethyl-2-methyl-4-(1-(3-methyl-2-oxo-2,3-dihydrobenzo[d]oxazol-5-yl)ethyl)piperazin-1-yl)-1-methyl-2-oxo-1,2-dihydropyrido[3,2-d]pyrimidine-6-carbonitrile] |  | 4680 | IC50 [4]: 1280 nM; EC50 [3, 7]: 3460 nM
17 | CC[C@@H]1CN(c2nc(=O)n(C)c3ccc(C#N)nc23)[C@@H](CC)CN1Cc1ccc(C(F)(F)F)cc1 [Example 205, 4-((2S,5R)-2,5-diethyl-4-(4-(trifluoromethyl)benzyl)piperazin-1-yl)-1-methyl-2-oxo-1,2-dihydropyrido[3,2-d] pyrimidine-6-carbonitrile] |  | 3740 | IC50 [4]: 61 nM; EC50 [3, 8]: 830 nM
18 | CCC(c1ccc(Cl)cc1F)N1C[C@H](CC)N(c2nc(=O)n(C)c3ccc(C#N)nc23)C[C@H]1CC (stereo partly drawn) [Example 239, 4-((2S,5R)-4-(1-(4-chloro-2-fluorophenyl)propyl)-2,5-diethylpiperazin-1-yl)-1-methyl-2-oxo-1,2-dihydropyrido[3,2-d]pyrimidine-6-carbonitrile] |  | 2230 | IC50 [4]: 94 nM; EC50 [3, 7]: 2850 nM

The remaining compounds from weak to strong by IC50 [2, 6], led by results:

Row | IC50 [1, 5] [nM] | IC50 [2, 6] [nM] | Compound | other results
19 | 290 | 130 | COC[C@@H]1CN(c2nc(=O)n(C)c3ccc(C#N)nc23)[C@@H](C)CN1C(c1ccc(F)cc1)c1ccc(C(F)(F)F)cn1 (single isomer, unassigned) [Example 178] | EC50 [3, 8]: 91 nM
20 | 10 | 120 | CC(c1ccc(OC(F)F)cc1)N1C[C@H](C)N(c2nc(=O)n(C)c3ccc(C#N)nc23)C[C@H]1C (single isomer, unassigned) [Example 156] | 
21 | 26 | 110 | CC(c1ccc(F)cc1)N1C[C@H](C)N(c2nc(=O)n(C)c3ccc(C#N)nc23)C[C@H]1C (single isomer, unassigned) [Example 128] | 
22 |  | 78 | [2H]C([2H])([2H])Oc1ccc(C(CC)N2C[C@H](CC)N(c3nc(=O)n(C)c4ccc(C#N)nc34)C[C@H]2CC)cc1 (single isomer, unassigned) [Example 208] | IC50 [4]: 25 nM; EC50 [3, 7]: 17 nM
23 | 5 | 60 | CCC(c1ccc(OC(F)(F)F)cc1F)N1C[C@H](CC)N(c2nc(=O)n(C)c3ccc(C#N)nc23)C[C@H]1CC (stereo partly drawn) [Example 11] | 
24 | 7 | 48 | CC[C@H]1CN(C(C)c2ccc(OC(F)(F)F)cc2)[C@H](CC)CN1c1nc(=O)n(C)c2ccc(C#N)nc12 (single isomer, unassigned) [Example 9] | 
25 | 110 | 37 | CC[C@@H]1CN(c2nc(=O)n(C)c3ccc(C#N)nc23)[C@@H](C)CN1C(c1ccc(F)cc1)c1nc(C2CC2)cs1 (single isomer, unassigned) [Example 50] | 
26 | 45 | 37 | CC[C@H]1CN(C(C)c2ccc(OC)cc2)[C@H](CC)CN1c1nc(=O)n(C)c2ccc(C#N)nc12 (single isomer, unassigned) [Example 16] | 
27 | 210 | 33 | CC[C@@H]1CN(c2nc(=O)n(C)c3ccc(C#N)nc23)[C@@H](C)CN1C(C)c1ccc(OCC2CC2)cc1 (single isomer, unassigned) [Example 67] | 
28 | 30 | 25 | CC[C@H]1CN(C(C)c2ccc(OC(C)C)cc2)[C@H](CC)CN1c1nc(=O)n(C)c2ccc(C#N)nc12 (single isomer, unassigned) [Example 18] | 
29 | 40 | 21 | CC[C@@H]1CN(c2nc(=O)n(C)c3ccc(C#N)nc23)[C@@H](C)CN1C(C)c1ccc(C2CC2)cc1 (single isomer, unassigned) [Example 63] | EC50 [3, 7]: 70 nM
30 | 95 | 16 | CC[C@H]1CN(C(C)c2ccc(C(F)(F)F)cc2F)[C@H](C)CN1c1nc(=O)n(C)c2ccc(C#N)nc12 (stereo partly drawn) [Example 118, 4-((2S,5R)-2-ethyl-4-(1-(2-fluoro-4-(trifluoromethyl)phenyl)ethyl)-5-methylpiperazin-1-yl)-1-methyl-2-oxo-1,2-dihydropyrido[3,2-d]pyrimidine-6-carbonitrile] | 
31 | 36 | 14 | CCC(c1ccc(OC(F)F)cc1)N1C[C@H](C)N(c2nc(=O)n(C)c3ccc(C#N)nc23)C[C@H]1CC (single isomer, unassigned) [Example 77] | 
